Source: patent US10731187B2, “Recombinant strain producing O-aminobenzoate and fermentative production of aniline from renewable resources via 2-aminobenzoic acid” (Covestro Deutschland AG, priority 2014, dated 2020)

How the values were obtained:
[1] = system: B. subtilis; test: Shake flask growth (OD600) with supplementation of toxic substances; type: cell-based, Bacillus subtilis subsp. 168; conditions: 3 g/L oAB, pH 7 (MOPS), 100-mL shake flask, 25 h
From the text: (§1) Several strains commonly used industrial biotechnology were investigated regarding their natural tolerance towards oAB and to organic solvents in question for later product extraction (e.g. 1-dodecanol or octanol). Furthermore, the influence of the used pH value was investigated. It was known from previous experiments that at least for E. coli the toxicity of aromatic compounds depends strongly on the pH value, probably because protonated acids can much more efficiently penetrate the cell membrane and accordingly their toxicity rises severely. The extraction of oAB in an organic phase is supposed to work best at low pH values, close to the isoelectric point of oAB. The most relevant host strains considered were: Escherichia coli K12, Corynebacterium glutamicum DSM 20300 (=ATCC 13032), Pseudomonas putida KT2440, Bacillus subtilis subsp. 168, Saccharomyces cerevisiae DSM 70449, and Pichia pastoris X33 (DSM 70382).
(§2) To investigate the chosen strains towards the mentioned characteristics shake flasks and small scale fermentation experiments were performed and the organisms were supplemented with the toxic substances (aminobenzoates, solvents) at differed concentrations, different pH values, and the behaviour of the strains was studied. […]

[2] = system: E. coli; test: as above; type: cell-based, Escherichia coli K12; conditions: already low concentrations
From the text: as §1, §2

[3] = system: Corynebacterium glutamicum; test: Small-scale fermentation (1 L fermenters, pH 7, glucose fed) with supplementation; type: cell-based; conditions: pH 7, fermenter
From the text: The results obtained in the shake flask experiments with C. glutamicum were reproduced in small-scale fermenters (FIG. 21). […]. The glucose-fed allowed the strain to grow to higher cell densities.
. This confirmed the results obtained in shake flasks (see FIG. 22). […] It was concluded that 1-dodecanol is a suitable oAB extraction solvent.
In a further experiment the concentration of oAB was increased to investigate the effect on the C. glutamicum strain. The four fermenters were hereto supplemented with 0 g/L, 15 g/L, 35 g/L and 80 g/L of oAB. […] The rest of the cultivation conditions was kept as described above. […] Cultures supplemented with 15 g/L oAB have shown an extensive lag-phase over 34-48 h before growth was recovered and cells entered the exponential phase (see FIG. 24). An oAB degradation during fermentation was again excluded by HPLC measurements of culture supernatants (data not shown).

[4] = Solubility of AA in aniline; type: physicochemical
From the text: Aniline is a much better solvent for AA than dodecanol and, being also the product of the decarboxylation, its use presented great advantages compared to 1-dodecanol.

Nc1ccccc1C(=O)O [oAB, 2-aminobenzoic acid]
growth (OD600) [1]: strongly decreased | toxicity of o-aminobenzoate [2]: toxic | growth (OD600) ([3]; 7 g/L): prolonged lag-phase but finally same cell densities were reached | lag-phase before growth was recovered ([3]; 15 g/L oAB (ammonium salt)): 34 to 48 h | growth (OD600) ([3]; 35 g/L oAB (ammonium salt)): growth inhibition | growth (OD600) ([3]; 80 g/L oAB (ammonium salt), over 54 hours): dying (lysis) of the cells | AA that could be dissolved in aniline ([4]; 50° C.): up to 40% | AA that could be dissolved in aniline ([4]; 90° C.): up to 50% | AA that could be dissolved in aniline ([4]; room temperature (20° C.)): up to 30%
